This note sets out measurements from patent US20150284347A1, “NEW BENZENE SULFONAMIDE THIAZOLE COMPOUNDS” (INSERM (INSTITUT NATIONAL DE LA SANTÉ ET DE LA RECHERCHE …, priority 2012, published 2015).

SMILES strings stand for the structures.

In data set [1] the test system is melanoma cells from patients GIC. The data set can be described thus: Trypan blue cell viability, patient melanoma cells GIC. It is filed as cell-based, human. The following applies: 10 μM, trypan blue exclusion, FIG. 1. On the procedure:
(§1) Cell viability was assessed by measuring the number of cells alive in samples of two different kind of prostate cells, respectively noted LNCAP and PC3, of breast cells noted MCF7, of colon cells noted HT29, of metastatic melanoma cell lines A375 and of melanoma cells from patients noted GIC. The measure of cell viability as performed by cell counting using the trypan blue exclusion method. Results were expressed as the percentage of cells alive relatively to the number of living cells in the presence of DMSO, which corresponds to the negative control associated to the 100% value. Patient melanoma cells were prepared from biopsy after digestion for 1-2 h with collagenase A (0.33 U/ml), dispase (0.85 U/ml) and Dnase I (144 U/ml) at 37° C. Large debris were removed by filtration through a 70-mm cell strainer. Cells were seeded in 6-well plates (60000 cells/well), depleted and incubated with compounds for the times indicated. Then cells were detached in the presence of 2000 of […] (Thermo) and 2 ml of RPMI 1640 Glutamax (Gibco) was added to the cell solution. 100 of this solution was stained for 1 minute with 100 of 0.4% trypan blue before counting with a Malassez chamber. […] Results are expressed as percentage of cells alive relatively to the number of living cells in the presence of DMSO, which corresponds to the negative control associated to the 100% value. […]

The next data set relates to prostate cells LNCAP. The data set is described as follows: Trypan blue cell viability, LNCAP. The class given is cell-based. Conditions: 10 μM, trypan blue exclusion, FIG. 1. On the procedure: as §1, with “value.” for “value. Patient melanoma cells were prepared from biopsy after digestion for 1-2 h with collagenase A (0.33 U/ml), dispase (0.85 U/ml) and Dnase I (144 U/ml) at 37° C. Large debris were removed by filtration through a 70-mm cell strainer.”, “chamber. The effect of compound on cell viability was studied on different types of cells. […] Cancer cells from prostate, breast, colon and melanoma A375 came from cell lines cultures.” for “chamber.”

Another data set concerns prostate cells PC3. The data set can be described thus: Trypan blue cell viability, PC3. The class given is cell-based. The following applies: 10 μM, PC3, trypan blue exclusion, FIG. 1. As for the experimental part: as §1, with “value.” for “value. Patient melanoma cells were prepared from biopsy after digestion for 1-2 h with collagenase A (0.33 U/ml), dispase (0.85 U/ml) and Dnase I (144 U/ml) at 37° C. Large debris were removed by filtration through a 70-mm cell strainer.”, “chamber. The effect of compound on cell viability was studied on different types of cells. […] Cancer cells from prostate, breast, colon and melanoma A375 came from cell lines cultures.” for “chamber.”

A further data set relates to normal human melanocytes. The data set can be described thus: Trypan blue cell viability, normal melanocytes. It is filed as cell-based. The following applies: 10 μM, FIG. 2. As for the experimental part: Primary cell cultures of human normal melanocytes were prepared from human foreskin. In order to determine the effect of compound HA15 on cell viability of melanocytes and fibroblasts, 10 μM of ciglitazone or 10 μM of HA15 were added to the cell samples. The measure of cell viability was performed in the same way as for FIG. 1. Results are expressed as the percentage of living cells relatively to the number of living cells in the presence of DMSO, as for FIG. 1. Normal human melanocytes (NHM) prepared from foreskins of newborns were grown under 5% CO2 at 37° C. in MCDB 153 (Sigma) supplemented with 2% FCS, bovine pituitary extract (10 μg/ml), PMA (8 nM), bFGF (ing/nil), insulin (5 μg/ml), hydrocortisone (0.5 μg/ml), forskolin (10 μM), gentamicin (20 μg/ml), penicillin/streptomycin/amphotericin B (100 U/ml) (Invitrogen). Cells were seeded in 6-well plates (60000 cells/well), depleted and incubated with compounds for the times indicated. Then cells were detached in the presence of 2000 of […] (Thermo) and 2 ml of RPMI 1640 Glutamax (Gibco) was added to the cell solution. 100 of this solution was stained for 1 minute with 100 of 0.4% trypan blue before counting with a Malassez chamber. The effect of compound HA15 on cell viability of melanocytes and fibroblasts was studied, as illustrated by FIG. 2. Primary cell cultures of human normal melanocytes were prepared from human foreskin. […]

The subject of the next data set is breast cells MCF7. The data set is described as follows: Trypan blue cell viability, MCF7. Conditions: 10 μM, MCF7, trypan blue exclusion, FIG. 1. It is filed as cell-based. On the procedure: as §1, with “value.” for “value. Patient melanoma cells were prepared from biopsy after digestion for 1-2 h with collagenase A (0.33 U/ml), dispase (0.85 U/ml) and Dnase I (144 U/ml) at 37° C. Large debris were removed by filtration through a 70-mm cell strainer.”, “chamber. The effect of compound on cell viability was studied on different types of cells. […] Cancer cells from prostate, breast, colon and melanoma A375 came from cell lines cultures.” for “chamber.”

With `CC(=O)Nc1nc(-c2cccc(NS(=O)(=O)c3cccc4c(N(C)C)cccc34)c2)cs1` [HA15, N-(4-(3-(5-(dimethylamino)naphthalene-1-sulfonamido)phenyl)thiazol-2-yl)acetamide], the “cell viability (cells alive relative to DMSO)” value (in data set [1]; with prostate cells LNCAP; in the data set with prostate cells PC3; in the data set on breast cells MCF7) was “viability greatly reduced” each time. The “cell viability of normal melanocytes” value in the data set on normal human melanocytes is reported as “not affected”.
